Entries after “also recorded” stand apart in the source; their conditions may differ.
How the values were obtained:
Format in all cases: in vivo, C57BL/10ScSn-Dmd^mdx/J)
[1] = system: bone marrow MSCs (CD45 negative, Sca-1, CD29 & CD105 positive); assay: Flow cytometry of bone marrow for CD45 negative cells triply positive for Sca-1, CD29 & CD105, mdx mouse model; settings: mdx mice, 8 mg/kg oral once or twice daily, 6 weeks, vs vehicle treated mdx
Experimental: (§1) In the mdx mouse model of DMD, 5 week-old wild-type (C57BL/10SnJ) and mdx (C57BL/10ScSn-Dmd^mdx/J) mice were treated for 6 weeks and necropsied. These mice were broken into 4 orally dosed groups: a wild-type group (n=5) dosed twice daily with vehicle, an mdx group (n=8) dosed twice daily with vehicle, an mdx group (n=8) dosed once daily with 8 mg/kg of Compound 7, and an mdx group (n=8) dosed twice daily with 8 mg/kg of Compound 7. The vehicle was a 1% β-cyclodextrin in ˜pH 3 citrate buffer and the treatment 1% β-cyclodextrin in ˜pH 3 citrate buffer with Compound 7. At necropsy, the femur bone marrow was isolated and peripheral blood was harvested. […] CFU-F colonies of ≥50 cells were counted after 8 days in culture. […]
(§2) During the necropsy, the blood was collected by cardiac puncture with a 1 mL syringe fitted with a 22G needle, transferred into 2 ml K3E K3EDTA VACUETTE® tubes, and stored on ice. […] The cell solutions were counted with a Z1 Coulter Counter (Beckman Coulter) and resuspended at 5*10^6 cells/mL. […] The supernatant was then removed, re-suspend in 500 μL 10% neutral buffered formalin, covered with aluminum foil, and stored at 4° C. until analyzed. Samples were then read on a LSR II flow cytometer (BD Biosciences, San Jose, Calif.). Data was analyzed using FlowJo™ V 10.0.7r2.

[2] = system: circulating MSCs (CD45 negative, Sca-1, CD29 & CD105 positive); assay: Flow cytometry of peripheral blood for CD45 negative cells triply positive for Sca-1, CD29 & CD105, mdx mouse model; settings: mdx mice, 8 mg/kg oral twice daily, 6 weeks, vs vehicle treated mdx and wild-type
Experimental: as §1, §2

bone marrow MSCs = assay: Bone marrow CFU-F colony count after 6 weeks oral treatment in the mdx mouse model of DMD; settings: mdx mice, vs vehicle treated mdx
Experimental: In the mdx mouse model of DMD, 5 week-old wild-type (C57BL/10SnJ) and mdx (C57BL/10ScSn-Dmd^mdx/J) mice were treated for 6 weeks and necropsied. These mice were broken into 4 orally dosed groups: a wild-type group (n=5) dosed twice daily with vehicle, an mdx group (n=8) dosed twice daily with vehicle, an mdx group (n=8) dosed once daily with 8 mg/kg of Compound 7, and an mdx group (n=8) dosed twice daily with 8 mg/kg of Compound 7. The vehicle was a 1% β-cyclodextrin in ˜pH 3 citrate buffer and the treatment 1% β-cyclodextrin in ˜pH 3 citrate buffer with Compound 7. At necropsy, the femur bone marrow was isolated and peripheral blood was harvested. The bone marrow was cultured in Mesencult™ MSC Basal Medium (mouse) supplemented with Mesencult™ MSC Stimulatory Supplement (Stemcell Technologies). CFU-F colonies of ≥50 cells were counted after 8 days in culture.
At necropsy, the femurs were also collected in a 1.5 mL microcentrifuge tube containing ˜800 μL of sterile Dulbecco's phosphate-buffered saline (DPBS) with 2% fetal bovine serum (FBS) and 2× Penicillin (Pen) and 2× Streptomycin (Strep) (DPBS/2% FBS/2× Pen/Strep) and stored on ice. […] The cell solutions were counted with a Z1 Coulter Counter (Beckman Coulter) and resuspended at 5*10^6 cells/mL. […] On day 8, the colonies of ≥50 were counted by light microscopy.

`CCCCOC(=O)NS(=O)(=O)c1ccc(OC(F)(F)F)cc1-c1ccc(Cn2ccnc2)cn1` [Compound 7] was tested, and the “Percentage of CD45 negative cells triply positive for Sca-1, CD29 & CD105 in bone marrow” value [1] was “restored the percentage of these triply positive cells to levels comparable to non-dystrophic controls; also recorded: significantly increased”, the “Percentage of CD45 negative cells triply positive for Sca-1, CD29 & CD105 in peripheral blood (circulating MSCs)” value [2] was “significantly higher; also recorded: significant increase” and the “Bone marrow MSC, CFU-F counts (colonies of ≥50 cells after 8 days in culture)” value (bone marrow MSCs; 8 mg/kg oral once daily) was “significantly increased; also recorded: significant increase”. For the same compound, the “Bone marrow MSC, CFU-F counts (colonies of ≥50 cells after 8 days in culture)” value (bone marrow MSCs; 8 mg/kg oral twice daily) was “restoring levels comparable to the non-dystrophic controls; also recorded: significant increase”.
